Measurements: ChEMBL document CHEMBL6177936, “Stachydrine, a pyrrole alkaloid with promising therapeutic potential against metabolic syndrome and associated organ dysfunction” (RSC Med Chem, 2024)

Columns and labels:
[1] = AUC(infinity) in CSBS-PD induced Sprague-Dawley rat at 15.28 mg/kg, po incubated for 24 hrs by LC-MS/MS analysis; assay type: ADME, organism-based; conditions: in vivo
[2] = AUC (0 to infinity) in Wistar rat at 10 mg/kg, iv measured for 24 hrs by LC-MS/MS analysis; assay type: ADME, organism-based; conditions: in vivo
[3] = Cmax in KYDS rat at 1 g/Kg, IG by LC-MS/MS analysis; assay type: ADME; conditions: in vivo, po, 1000 mg/kg
[4] = Half life in Sprague-Dawley rat at 15.28 mg/kg, po incubated for 24 hrs by LC-MS/MS analysis; assay type: ADME, organism-based; conditions: in vivo
[5] = Tmax in Sprague-Dawley rat at 9.86 mg/kg, po by UPLC-MS/MS analysis; assay type: ADME, organism-based; conditions: in vivo
[6] = AUC(0 to infinity) in KYDS rat at 1 g/Kg, IG by LC-MS/MS analysis; assay type: ADME; conditions: in vivo, po, 1000 mg/kg
[7] = Half life in CSBS-PD induced Sprague-Dawley rat at 15.28 mg/kg, po incubated for 24 hrs by LC-MS/MS analysis; assay type: ADME, organism-based; conditions: in vivo
[8] = Tmax in KYDS rat at 1 g/Kg, IG by LC-MS/MS analysis; assay type: ADME; conditions: in vivo, po, 1000 mg/kg
[9] = MRT (0 to infinity) in Sprague-Dawley rat at 9.86 mg/kg, po by UPLC-MS/MS analysis; assay type: ADME, organism-based; conditions: in vivo
[10] = AUC (0 to infinity) in Wistar rat at 166.3 mg/kg, po; assay type: ADME, organism-based; conditions: in vivo
[11] = MRT(infinity) in CSBS-PD induced Sprague-Dawley rat at 15.28 mg/kg, po incubated for 24 hrs by LC-MS/MS analysis; assay type: ADME, organism-based; conditions: in vivo
[12] = MRT (0 to infinity) in Wistar rat at 166.3 mg/kg, po; assay type: ADME, organism-based; conditions: in vivo
[13] = Half life in Sprague-Dawley rat at 9.86 mg/kg, po by UPLC-MS/MS analysis; assay type: ADME, organism-based; conditions: in vivo
[14] = Tmax in Wistar rat at 166.3 mg/kg, po; assay type: ADME, organism-based; conditions: in vivo
[15] = Apparent oral clearance in KYDS rat at 1 g/Kg, IG by LC-MS/MS analysis; assay type: ADME; conditions: in vivo, 1000 mg/kg
[16] = Cmax in Sprague-Dawley rat at 9.86 mg/kg, po by UPLC-MS/MS analysis; assay type: ADME, organism-based; conditions: in vivo
[17] = Cmax in Wistar rat at 10 mg/kg, iv measured for 24 hrs by LC-MS/MS analysis; assay type: ADME, organism-based; conditions: in vivo
[18] = Half life in Wistar rat at 166.3 mg/kg, po; assay type: ADME, organism-based; conditions: in vivo
[19] = Cmax in CSBS-PD induced Sprague-Dawley rat at 15.28 mg/kg, po incubated for 24 hrs by LC-MS/MS analysis; assay type: ADME, organism-based; conditions: in vivo
[20] = Clearance in Wistar rat at 10 mg/kg, iv measured for 24 hrs by LC-MS/MS analysis; assay type: ADME, organism-based; conditions: in vivo
[21] = MRT (0 to infinity) in KYDS rat at 1 g/Kg, IG by LC-MS/MS analysis; assay type: ADME; conditions: in vivo, po, 1000 mg/kg
[22] = Tmax in CSBS-PD induced Sprague-Dawley rat at 15.28 mg/kg, po incubated for 24 hrs by LC-MS/MS analysis; assay type: ADME, organism-based; conditions: in vivo
[23] = AUC (0 to infinity) in Sprague-Dawley rat at 9.86 mg/kg, po by UPLC-MS/MS analysis; assay type: ADME, organism-based; conditions: in vivo
[24] = Half life in KYDS rat at 1 g/Kg, IG by LC-MS/MS analysis; assay type: ADME; conditions: in vivo, po, 1000 mg/kg
[25] = Cmax in Wistar rat at 166.3 mg/kg, po; assay type: ADME, organism-based; conditions: in vivo

Structure (SMILES): C[N+]1(C)CCC[C@H]1C(=O)[O-]
- AUC [1]: 99240 ng·h/mL
- AUC [2]: 12026.7 h/ng/mL
- Cmax [3]: 135 ng/mL
- half-life [4]: 3.89 h
- Tmax [5]: 1.5 h
- AUC [6]: 1279.31 µg/L/h
- half-life [7]: 5.51 h
- Tmax [8]: 1.08 h
- MRT inf [9]: 4.44 h
- AUC(0-inf) [10]: 2900 ng·h/mL
- MRT inf [11]: 9.97 h
- MRT inf [12]: 1.67 h
- half-life [13]: 3.79 h
- Tmax [14]: 0.75 h
- CL/F [15]: 1 mL/min/kg
- Cmax [16]: 673 ng/mL
- Cmax [17]: 6400 ng/mL
- half-life [18]: 1.64 h
- Cmax [19]: 14000 ng/mL
- clearance [20]: 15.5 mL/min/kg
- MRT inf [21]: 9.21 h
- Tmax [22]: 2.83 h
- AUC(0-inf) [23]: 2800 ng·h/mL
- half-life [24]: 6.59 h
- Cmax [25]: 1610 ng/mL
